# Reference: PubChem BioAssay (NCI)
#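 Values below derive from 48-hour exposures of cells grown in 96-well plates, with endpoints linearly interpolated between the two concentrations bracketing the appropriate inhibition level. Here, GI50 denotes the concentration required for 50% inhibition of growth. Definition used: TGI = concentration required for complete inhibition of growth.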
# Legend:
# Experiment in all cases: NCI-60 cell line screen, 48 h
# BT-549 breast = tested on: BT-549 breast
# A498 renal = tested on: A498 renal
# MCF7 breast = tested on: MCF7 breast
# MALME-3M melanoma = tested on: MALME-3M melanoma
# HCT-116 colon = tested on: HCT-116 colon
# OVCAR-3 ovarian = tested on: OVCAR-3 ovarian
# HOP-62 NSCLC = tested on: HOP-62 NSCLC
# SNB-19 CNS = tested on: SNB-19 CNS
# PC-3 prostate = tested on: PC-3 prostate
# 786-0 renal = tested on: 786-0 renal
# ACHN renal = tested on: ACHN renal
# RPMI-8226 leukemia = tested on: RPMI-8226 leukemia
# U251 CNS = tested on: U251 CNS
# SK-MEL-28 melanoma = tested on: SK-MEL-28 melanoma
# HS 578T breast = tested on: HS 578T breast
# HCT-15 colon = tested on: HCT-15 colon
# COLO 205 colon = tested on: COLO 205 colon
# T-47D breast = tested on: T-47D breast
# NCI/ADR-RES ovarian = tested on: NCI/ADR-RES ovarian
# K-562 leukemia = tested on: K-562 leukemia
# CAKI-1 renal = tested on: CAKI-1 renal
# HL-60(TB) leukemia = tested on: HL-60(TB) leukemia
# SF-295 CNS = tested on: SF-295 CNS
# A549 NSCLC = tested on: A549 NSCLC
# SW-620 colon = tested on: SW-620 colon
# KM12 colon = tested on: KM12 colon
# NCI-H23 lung = tested on: NCI-H23 lung
# SNB-75 CNS = tested on: SNB-75 CNS
# SF-268 CNS = tested on: SF-268 CNS
# SF-539 CNS = tested on: SF-539 CNS
# NCI-H226 lung = tested on: NCI-H226 lung
# CCRF-CEM leukemia = tested on: CCRF-CEM leukemia
# NCI-H522 lung = tested on: NCI-H522 lung
# MOLT-4 leukemia = tested on: MOLT-4 leukemia
# OVCAR-8 ovarian = tested on: OVCAR-8 ovarian
# HCC-2998 colon = tested on: HCC-2998 colon
# IGROV1 ovarian = tested on: IGROV1 ovarian
# TK-10 renal = tested on: TK-10 renal
# HOP-92 NSCLC = tested on: HOP-92 NSCLC
# NCI-H460 lung = tested on: NCI-H460 lung
# SN12C renal = tested on: SN12C renal
# SR leukemia = tested on: SR leukemia
# SK-MEL-5 melanoma = tested on: SK-MEL-5 melanoma
# LOX IMVI melanoma = tested on: LOX IMVI melanoma
# DU-145 prostate = tested on: DU-145 prostate
# OVCAR-4 ovarian = tested on: OVCAR-4 ovarian
# M14 melanoma = tested on: M14 melanoma
# HT29 colon = tested on: HT29 colon
# MDA-MB-435 = tested on: MDA-MB-435
# UO-31 renal = tested on: UO-31 renal
# OVCAR-5 ovarian = tested on: OVCAR-5 ovarian
# UACC-257 melanoma = tested on: UACC-257 melanoma
# SK-OV-3 ovarian = tested on: SK-OV-3 ovarian
# EKVX NSCLC = tested on: EKVX NSCLC
# RXF 393 renal = tested on: RXF 393 renal
# SK-MEL-2 melanoma = tested on: SK-MEL-2 melanoma
# MDA-MB-231 breast = tested on: MDA-MB-231 breast
# MDA-N = tested on: MDA-N
# UACC-62 melanoma = tested on: UACC-62 melanoma
smiles,measurement,setting,value
CCCCn1c(=O)c2c(nc3n2CCCN3CCc2ccc(OCC(=O)NCCN(CC)CC)cc2)n(CCCC)c1=O,GI50,BT-549 breast,2.55 µM
same,TGI,BT-549 breast,8.85 µM
same,GI50,A498 renal,0.54 µM
same,TGI,A498 renal,2.51 µM
same,GI50,MCF7 breast,1.95 µM
same,TGI,MCF7 breast,8.97 µM
same,GI50,MALME-3M melanoma,0.922 µM
same,TGI,MALME-3M melanoma,1.98 µM
same,GI50,HCT-116 colon,1.63 µM
same,TGI,HCT-116 colon,6.42 µM
same,GI50,OVCAR-3 ovarian,4.7 µM
same,TGI,OVCAR-3 ovarian,11.2 µM
same,GI50,HOP-62 NSCLC,5.75 µM
same,TGI,HOP-62 NSCLC,14.7 µM
same,GI50,SNB-19 CNS,3.24 µM
same,TGI,SNB-19 CNS,11.4 µM
same,GI50,PC-3 prostate,1.19 µM
same,TGI,PC-3 prostate,5.37 µM
same,GI50,786-0 renal,0.912 µM
same,TGI,786-0 renal,2 µM
same,GI50,ACHN renal,2.98 µM
same,TGI,ACHN renal,10.6 µM
same,GI50,RPMI-8226 leukemia,1.13 µM
same,TGI,RPMI-8226 leukemia,2.9 µM
same,GI50,U251 CNS,2.14 µM
same,TGI,U251 CNS,8.1 µM
same,GI50,SK-MEL-28 melanoma,0.98 µM
same,TGI,SK-MEL-28 melanoma,2.04 µM
same,GI50,HS 578T breast,1.76 µM
same,TGI,HS 578T breast,11.2 µM
same,GI50,HCT-15 colon,1.11 µM
same,TGI,HCT-15 colon,3.47 µM
same,GI50,COLO 205 colon,1.78 µM
same,TGI,COLO 205 colon,7.38 µM
same,GI50,T-47D breast,4.3 µM
same,TGI,T-47D breast,13.7 µM
same,GI50,NCI/ADR-RES ovarian,5.42 µM
same,TGI,NCI/ADR-RES ovarian,27.9 µM
same,GI50,K-562 leukemia,1.31 µM
same,TGI,K-562 leukemia,4.39 µM
same,GI50,CAKI-1 renal,2.63 µM
same,TGI,CAKI-1 renal,9.94 µM
same,GI50,HL-60(TB) leukemia,5.97 µM
same,TGI,HL-60(TB) leukemia,15.6 µM
same,GI50,SF-295 CNS,0.877 µM
same,TGI,SF-295 CNS,1.95 µM
same,GI50,A549 NSCLC,7.12 µM
same,TGI,A549 NSCLC,15.4 µM
same,GI50,SW-620 colon,4.86 µM
same,TGI,SW-620 colon,11.2 µM
same,GI50,KM12 colon,6.49 µM
same,TGI,KM12 colon,13.5 µM
same,GI50,NCI-H23 lung,6.51 µM
same,TGI,NCI-H23 lung,15.6 µM
same,GI50,SNB-75 CNS,1.93 µM
same,TGI,SNB-75 CNS,10 µM
same,GI50,SF-268 CNS,5.16 µM
same,TGI,SF-268 CNS,12.8 µM
same,GI50,SF-539 CNS,1.87 µM
same,TGI,SF-539 CNS,7 µM
same,GI50,NCI-H226 lung,7.13 µM
same,TGI,NCI-H226 lung,16.9 µM
same,GI50,CCRF-CEM leukemia,1.13 µM
same,TGI,CCRF-CEM leukemia,3.9 µM
same,GI50,NCI-H522 lung,7.5 µM
same,TGI,NCI-H522 lung,16.7 µM
same,GI50,MOLT-4 leukemia,2.14 µM
same,TGI,MOLT-4 leukemia,10.5 µM
same,GI50,OVCAR-8 ovarian,7.1 µM
same,TGI,OVCAR-8 ovarian,26.4 µM
same,GI50,HCC-2998 colon,2.93 µM
same,TGI,HCC-2998 colon,9.73 µM
same,GI50,IGROV1 ovarian,5.83 µM
same,TGI,IGROV1 ovarian,15.4 µM
same,GI50,TK-10 renal,7.26 µM
same,TGI,TK-10 renal,14.6 µM
same,GI50,HOP-92 NSCLC,0.846 µM
same,TGI,HOP-92 NSCLC,3.45 µM
same,GI50,NCI-H460 lung,2.2 µM
same,TGI,NCI-H460 lung,7.94 µM
same,GI50,SN12C renal,5.76 µM
same,TGI,SN12C renal,15.3 µM
same,GI50,SR leukemia,1.14 µM
same,TGI,SR leukemia,3.02 µM
same,GI50,SK-MEL-5 melanoma,0.864 µM
same,TGI,SK-MEL-5 melanoma,1.65 µM
same,GI50,LOX IMVI melanoma,0.929 µM
same,TGI,LOX IMVI melanoma,1.99 µM
same,GI50,DU-145 prostate,4.56 µM
same,TGI,DU-145 prostate,35.3 µM
same,GI50,OVCAR-4 ovarian,2.61 µM
same,TGI,OVCAR-4 ovarian,9.76 µM
same,GI50,M14 melanoma,0.961 µM
same,TGI,M14 melanoma,1.93 µM
same,GI50,HT29 colon,1.91 µM
same,TGI,HT29 colon,6.4 µM
same,GI50,MDA-MB-435,5.08 µM
same,TGI,MDA-MB-435,11.1 µM
same,GI50,UO-31 renal,1.51 µM
same,TGI,UO-31 renal,7.86 µM
same,GI50,OVCAR-5 ovarian,7.58 µM
same,TGI,OVCAR-5 ovarian,18 µM
same,GI50,UACC-257 melanoma,1.02 µM
same,TGI,UACC-257 melanoma,2.16 µM
same,GI50,SK-OV-3 ovarian,5.93 µM
same,TGI,SK-OV-3 ovarian,12.6 µM
same,GI50,EKVX NSCLC,5.2 µM
same,TGI,EKVX NSCLC,11.7 µM
same,GI50,RXF 393 renal,1.65 µM
same,TGI,RXF 393 renal,6.76 µM
same,GI50,SK-MEL-2 melanoma,6.7 µM
same,TGI,SK-MEL-2 melanoma,15.3 µM
same,GI50,MDA-MB-231 breast,1.91 µM
same,TGI,MDA-MB-231 breast,7.26 µM
Cc1csc2nc(-c3ccc(Cl)c([N+](=O)[O-])c3)c(/C=N/N=C(N)N)n12,TGI,A498 renal,2.85 µM
same,TGI,MCF7 breast,3.67 µM
same,TGI,MALME-3M melanoma,4.38 µM
same,TGI,HCT-116 colon,3.97 µM
same,TGI,HOP-62 NSCLC,3.41 µM
same,TGI,PC-3 prostate,2.81 µM
same,TGI,786-0 renal,2.93 µM
same,TGI,ACHN renal,2.94 µM
same,TGI,U251 CNS,2.97 µM
same,TGI,SK-MEL-28 melanoma,3.45 µM
same,TGI,HCT-15 colon,3.02 µM
same,TGI,COLO 205 colon,2.37 µM
same,TGI,NCI/ADR-RES ovarian,5.95 µM
same,TGI,SF-295 CNS,2.78 µM
same,TGI,A549 NSCLC,3.54 µM
same,TGI,SW-620 colon,1.35 µM
same,TGI,KM12 colon,4.75 µM
same,TGI,NCI-H23 lung,3.29 µM
same,TGI,SNB-75 CNS,3.37 µM
same,TGI,MDA-N,2.69 µM
same,TGI,SF-539 CNS,2.98 µM
same,TGI,OVCAR-8 ovarian,1.57 µM
same,TGI,HOP-92 NSCLC,1.38 µM
same,TGI,SN12C renal,3.68 µM
same,TGI,SK-MEL-5 melanoma,2.94 µM
same,TGI,LOX IMVI melanoma,2.97 µM
same,TGI,DU-145 prostate,4.86 µM
same,TGI,UACC-62 melanoma,3.3 µM
same,TGI,OVCAR-4 ovarian,3.4 µM
same,TGI,M14 melanoma,3.38 µM
same,TGI,HT29 colon,3.26 µM
same,TGI,MDA-MB-435,3.13 µM
same,TGI,UO-31 renal,2.33 µM
same,TGI,OVCAR-5 ovarian,2.55 µM
same,TGI,UACC-257 melanoma,1.82 µM
same,TGI,SK-OV-3 ovarian,3.24 µM
same,TGI,EKVX NSCLC,2.93 µM
same,TGI,SK-MEL-2 melanoma,2.48 µM
same,TGI,MDA-MB-231 breast,3.68 µM
